# Tests used:
# HIV-1 1Ba-L = assay: Anti-HIV activity in HIV-infected primary human macrophages (p24 ELISA); assay type: cell-based; details: 70 ug/ml
# Description: The nanodrug was further investigated for anti-HIV activity in primary human macrophage and M-cell culture model, respectively. Human peripheral blood mononuclear cells (PBMC) were isolated from healthy donor and differentiated to macrophages as per previously published protocol^23. Briefly, PBMC were isolated with Ficoll-Hypaque (Pharmacia) gradient and cells were allowed to differentiate for 7 days in the presence of human macrophage colony stimulating factor (MCSF, Sigma) to macrophages. Following 7 days of incubation, macrophages were infected with HIV-1 1Ba-L (NIH AIDS research and reference reagent program. Cat#510) (100 ng/ml) and incubated for 24 hrs. The next day, cells were thoroughly washed to get rid of any unattached virus particle and fresh media was added. At the same time, same concentration (70 ug/ml) of nanodrug and unformulated drug (EFV) were added to these cells separately. The HIV infected macrophages were served as control. The nanodrug/EFV drug treated cells were monitored for up to 10 days along with infected control cells. The cell supernatant was collected at day 0, 1, 3, 5, 7 and 10 days post treatment. The viral p24 level in the supernatant was measured with p24 ELISA assay (Cat. #0801200, Zeptometrix, USA). The minimum assay detection limit for p24 antigen by ELISA was 7.8 pg/ml as provided by the manufacturer. […]
# HIV-1Ba-L = assay: Anti-HIV activity in in vitro M-cell culture model with HIV-infected Raji cells (p24 ELISA); assay type: cell-based; details: 70 ug/ml; for HIV replication (p24 level in culture supernatant) over time: infected Raji cells
# Description: The nanodrug was further investigated for anti-HIV activity in primary human macrophage and M-cell culture model, respectively. Simultaneously, a parallel anti-HIV activity study was set up in an in vitro model of M-cell. In this model, Raji cells were exposed with HIV-1Ba-L at the concentration of (100 ng/ml) for 24 hrs in a co-culture and then washed from unattached viral particles^24,25. Following that, same concentration (70 ug/ml) of nanodrug and EFV were added to M-cell culture model separately. […] The untreated Raji cells were kept as a control for all the experiments related to drug activity. In the M-cell culture model, infected Raji cells were also treated with EFV to compare with nanodrug. The effect of nanodrug on HIV replication was measured for up to 10 days post treatment in culture supernatant.
compound,measurement,setting,value
"O=C1Nc2ccc(Cl)cc2[C@@](C#CC2CC2)(C(F)(F)F)O1 [EFV, efavirenz]",HIV replication (p24 level in culture supernatant) over time,HIV-1 1Ba-L; day 0-10 post treatment,immediate inhibition of viral replication on day 1 and following that there was increase of viral p24 level
same,p24 level at end of experiment,HIV-1 1Ba-L; day 10,increased up to the level of untreated cells
same,p24 level within day 10,HIV-1Ba-L; day 10,increased closer to the level of untreated cells
same,HIV replication (p24 level in culture supernatant) over time,HIV-1Ba-L; up to day 10,immediate reduction of viral replication
same,HIV replication (p24 level in culture supernatant) over time,"HIV-1Ba-L; up to day 10, listed as free EFV","immediate decrease in viral replication as expected; however, rebound of viral p24 level within day ten"
